From US9995734B2, “Human T cell line assay for evaluating the immunologic identity of glatiramer acetate preparations” (Mylan Inc., priority 2013, dated 2018)

System: Donor 1 COP T-Cell Lines
Assay: Multiplex bead cytokine assay (FlowCytoMix), Donor 1 COP T-cell lines
Format: cell-based, human
Procedure: Culture medium was removed from cultures prepared as for proliferation assay and utilized to measure cytokine production. In most cases culture medium was collected 18-24 hours after mixing T-cells, APC, and stimulating antigen. Cytokine production was measured by ELISA or bead assay. For measuring cytokine production, 100-150 μL culture medium (100 μL if culture was to be continued, otherwise 150 μL) was removed from each well. In some cases, the culture was continued 48 hours, for a total of 72 hours of culture, and the proliferative response measured.
The concentration of multiple cytokines was measured simultaneously using FlowCytoMix™ kits (eBioscience, San Diego Calif.). These are fluorescent bead based assays consisting of beads conjugated to anti cytokine antibodies. Beads specific for each cytokine are distinguished by size and fluorescence at 670 run. Cytokine bound to each bead is detected using a phycoerythrin conjugated antibody so that the fluorescence at 585 nm reflects the concentration of cytokine in the sample. Two kits were utilized which measured different cytokine panels. The TH1/TH2 kit measures IFN-γ, IL-1β, IL-2, IL-4, IL-5, IL-6, IL-8, IL-10, IL-12p70, TNF-α (TNF) and TNF-β (LT). The TH1/TH2/TH9/TH17/TH22 kit measures […], IL-1β, IL-2, IL-4, IL-5, IL-6, IL-9, IL-10, IL-12p70, IL-13, IL-17, IL-22, and TNF-α (TNF). Both kits were used following the manufacturer's instructions.
IL-12p70, IFN-γ, IL-2, IL-10, IL-8, IL-6, IL-5, IL-4, IL-1β, TNF-α (TNF), and TNF-β (LT) secretion were measured in response to stimulation with 1, 3, or 10 μg/mL GMA, or 1, 3, or 10 μg/mL COP, as well as a no-antigen control and an MBP control, in the presence of autologous EBV-transformed B-LCL.

[1] = 222-1C5, 1 μg/mL, 24 hours after Day 56 restimulation
[2] = 222-1C5, 3 μg/mL, 24 hours after Day 56 restimulation
[3] = 222-1C5, 10 μg/mL, 24 hours after Day 56 restimulation
[4] = 222-1C5, 10 μg/mL, Day 34 supernatants
[5] = 222-1H12, 10 μg/mL, Day 34 supernatants
[6] = 222-2B8, 1 μg/mL, 24 hours after Day 56 restimulation
[7] = 222-2B8, 3 μg/mL, 24 hours after Day 56 restimulation
[8] = 222-2B8, 10 μg/mL, 24 hours after Day 56 restimulation
[9] = 222-2D2, 10 μg/mL, Day 34 supernatants
[10] = 222-2D8, 10 μg/mL, Day 34 supernatants
[11] = 222-2E1, 1 μg/mL, 24 hours after Day 56 restimulation
[12] = 222-2E1, 3 μg/mL, 24 hours after Day 56 restimulation
[13] = 222-2E1, 10 μg/mL, 24 hours after Day 56 restimulation
[14] = 222-B11 (so in the source), 1 μg/mL, 24 hours after Day 56 restimulation
[15] = 222-B11 (so in the source), 3 μg/mL, 24 hours after Day 56 restimulation
[16] = 222-B11 (so in the source), 10 μg/mL, 24 hours after Day 56 restimulation

In the case of glatiramer acetate [GMA], the IFN-γ [1] is reported as 181 pg/mL, the IL-2 [1] is reported as 30 pg/mL and the IL-5 [1] is reported as 0 pg/mL. It also gave an IL-10 [1] of 11 pg/mL, an IL-13 [1] of 154 pg/mL and an IL-22 [1] of 39 pg/mL. The TNF-α [1] was 3 pg/mL, the IFN-γ [2] was 325 pg/mL and the IL-2 [2] was 83 pg/mL. It also gave an IL-5 [2] of 0 pg/mL, an IL-10 [2] of 38 pg/mL and an IL-13 [2] of 316 pg/mL. The IL-22 [2] was 101 pg/mL, the TNF-α [2] was 72 pg/mL and the IFN-γ [3] was 664 pg/mL. For the same substance, the IL-2 [3] was 0 pg/mL, the IL-5 [3] was 0 pg/mL and the IL-10 [3] was 55 pg/mL. The IL-13 [3] was 942 pg/mL, the IL-22 [3] was 0 pg/mL and the TNF-α [3] was 80 pg/mL. It also gave an IFN-γ [4] of 511.42 pg/mL, an IL-1β [4] of 94.12 pg/mL and an IL-2 [4] of 185.35 pg/mL. The IL-5 [4] was 67.83 pg/mL, the IL-8 [4] was “<= 0 pg/mL” and the IL-10 [4] was 77.88 pg/mL. It also gave a TNF-α [4] of 31.35 pg/mL, a TNF-β [4] of 29.94 pg/mL and an IFN-γ [5] of 3138 pg/mL. The IL-1β [5] was 20 pg/mL, the IL-2 [5] was 152 pg/mL and the IL-4 [5] was 99 pg/mL. For the same substance, the IL-5 [5] was 336 pg/mL, the IL-10 [5] was 234 pg/mL and the TNF-α [5] was 83 pg/mL. The TNF-β [5] was 102 pg/mL, the IFN-γ [6] was 1.88 pg/mL and the IL-2 [6] was 0 pg/mL. For the same substance, the IL-5 [6] was 0 pg/mL, the IL-10 [6] was 0 pg/mL and the IL-13 [6] was 183.09 pg/mL. The IL-22 [6] was 0 pg/mL, the TNF-α [6] was 0 pg/mL and the IFN-γ [7] was 44.52 pg/mL. The IL-2 [7] was 1.6 pg/mL, the IL-5 [7] was 78.29 pg/mL and the IL-10 [7] was 1.8 pg/mL. The IL-13 [7] was 1214.45 pg/mL, the IL-22 [7] was 63.98 pg/mL and the TNF-α [7] was 0 pg/mL. The IFN-γ [8] was 140.65 pg/mL, the IL-2 [8] was 0 pg/mL and the IL-5 [8] was 400.46 pg/mL. For the same substance, the IL-10 [8] was 41 pg/mL, the IL-13 [8] was 3162.51 pg/mL and the IL-22 [8] was 124.15 pg/mL. It also gave a TNF-α [8] of 96.57 pg/mL, an IFN-γ [9] of 53.75 pg/mL and an IL-1β [9] of 103.85 pg/mL. The IL-2 [9] was 55.42 pg/mL, the IL-5 [9] was 29.13 pg/mL and the IL-8 [9] was “<= 0 pg/mL”. It also gave an IL-10 [9] of 26.12 pg/mL, a TNF-α [9] of 5.35 pg/mL and a TNF-β [9] of 5.79 pg/mL. For the same substance, the “IL-4, IL-6, or IL-12 detected” value (222-2D8, 222-1H12, 222-1C5, 222-2D2, Day 34 supernatants) was “Little or no”, the IFN-γ [10] was 2616 pg/mL and the IL-1β [10] was 2420 pg/mL. The IL-2 [10] was 52 pg/mL, the IL-4 [10] was 41 pg/mL and the IL-5 [10] was 1501 pg/mL. The IL-10 [10] was 107 pg/mL, the TNF-α [10] was 405 pg/mL and the TNF-β [10] was 243 pg/mL. For the same substance, the IFN-γ [11] was 49.11 pg/mL, the IL-2 [11] was 0 pg/mL and the IL-5 [11] was 0 pg/mL. For the same substance, the IL-10 [11] was 0 pg/mL, the IL-13 [11] was 146.02 pg/mL and the IL-22 [11] was 21.77 pg/mL. For the same substance, the TNF-α [11] was 9.36 pg/mL, the IFN-γ [12] was 162.68 pg/mL and the IL-2 [12] was 0 pg/mL. The IL-5 [12] was 0 pg/mL, the IL-10 [12] was 7.1 pg/mL and the IL-13 [12] was 1050.77 pg/mL. For the same substance, the IL-22 [12] was 25.71 pg/mL, the TNF-α [12] was 65.44 pg/mL and the IFN-γ [13] was 349.76 pg/mL. The IL-2 [13] was 0 pg/mL, the IL-5 [13] was 128.4 pg/mL and the IL-10 [13] was 16.33 pg/mL. The IL-13 [13] was 2036.36 pg/mL, the IL-22 [13] was 0 pg/mL and the TNF-α [13] was 170.24 pg/mL. The IFN-γ [14] was 0 pg/mL, the IL-2 [14] was 0 pg/mL and the IL-5 [14] was 0 pg/mL. For the same substance, the IL-10 [14] was 1.3 pg/mL, the IL-13 [14] was 29.41 pg/mL and the IL-22 [14] was 42.51 pg/mL. The TNF-α [14] was 0 pg/mL, the IFN-γ [15] was 0 pg/mL and the IL-2 [15] was 0 pg/mL. The IL-5 [15] was 0 pg/mL, the IL-10 [15] was 0 pg/mL and the IL-13 [15] was 133.55 pg/mL. It also gave an IL-22 [15] of 51.87 pg/mL, a TNF-α [15] of 0 pg/mL and an IFN-γ [16] of 37.79 pg/mL. It also gave an IL-2 [16] of 0 pg/mL, an IL-5 [16] of 94.56 pg/mL and an IL-10 [16] of 0.4 pg/mL. It also gave an IL-13 [16] of 1563.22 pg/mL, an IL-22 [16] of 0 pg/mL and a TNF-α [16] of 0 pg/mL. The “IFN-γ production” value (Line 105 (so in the source), Table 14 = 222-1C5, after appropriate dilution of supernatants) was “comparable amounts”.
